The record followed here is BindingDB's records for doi:10.1021/ml400235c (Korea Research Institute of Technology, 2013).

A short description of assay [1]: Antagonist activity at PAR1 in washed human platelets assessed as inhibition of haTRAP-induced platelet aggregation preincubated for 1 hr followed by haTRAP addition measured for 10 mins by spectrophotometric analysis.
A short description of assay [2]: Antagonist activity at PAR1 in human platelet rich plasma assessed as inhibition of haTRAP-induced platelet aggregation preincubated for 1 hr followed by haTRAP addition measured for 10 mins by spectrophotometric analysis.

pIC50: −log10 of the molar value.

For orientation: pIC50 means the negative decadic logarithm of the IC50, by convention in mol/L. Regarding `CC1(OC(N)=O)C[C@@H]2CCCC[C@@H]2[C@H]1C=Cc1ccc(-c2cccc(F)c2)cn1` (stereo not given in full), the pIC50 in assay [1] is 8.54; in assay [2] it was 7.00. Consider `CC(=O)N(C)C1C[C@@H]2CCCC[C@@H]2[C@H]1/C=C/c1ccc(-c2cccc(F)c2)cn1` (stereo not given in full), for which the pIC50 is 6.68 in assay [1] and 5.05 in assay [2].

`CS(=O)(=O)NC1C[C@@H]2CCCC[C@@H]2[C@H]1/C=C/c1ccc(-c2cccc(F)c2)cn1` (stereo not given in full): the pIC50 in assay [1] was 6.85; in assay [2], 5.41.

For `O=C1NCC2(C[C@@H]3CCCC[C@@H]3[C@H]2C=Cc2ccc(-c3cccc(F)c3)cn2)O1` (stereo not given in full), the pIC50 was 8.14 in assay [1] and 6.68 in assay [2]. In the same order, the values of `CN(C1C[C@@H]2CCCC[C@@H]2[C@H]1/C=C/c1ccc(-c2cccc(F)c2)cn1)S(C)(=O)=O` (stereo not given in full) are 8.66 and 7.01. In the same order, the values of `Fc1cccc(-c2ccc(/C=C/[C@@H]3[C@H]4CCCC[C@H]4CC34OCCO4)nc2)c1` are 6.39 and 5.39. Consider `CS(=O)(=O)OC1C[C@@H]2CCCC[C@@H]2[C@H]1/C=C/c1ccc(-c2cccc(F)c2)cn1` (stereo not given in full), for which the pIC50 in assay [1] was 8.22.

In the case of `CCOC(=O)N[C@@H]1CC[C@@H]2[C@@H](C1)C[C@H]1C(=O)O[C@H](C)[C@H]1[C@H]2C=Cc1ccc(-c2cccc(F)c2)cn1` [Ethyl [(3aR,4aR,8aR,9aS)-9(S)-[(E)-2-[5-(3-fluorophenyl)-2-pyridinyl]ethenyl]dodecahydro-1(R)-methyl-3-oxonaphtho[2,3-c]furan-6(R)-yl]carbamate], the results for the pIC50 in assay [1] and in assay [2] were 8.82 and 6.92, respectively.
